Results: the SangsterLogP compilation

Row | SMILES | logP
1 | CC1=C(C(=O)O)N2C(=O)C(NC(=O)C(NC(=O)c3nn(-c4ccc(C)cc4)c(=O)[nH]c3=O)c3ccccc3)C2SC1 (centres undefined) | 4.8
2 | CC1=C(C(=O)O)N2C(=O)C(NC(NC(=O)c3nn(-c4ccc(S(N)(=O)=O)cc4)c(=O)[nH]c3=O)c3ccc(O)cc3)C2SC1 (centres undefined) | -0.39
3 | CCOc1ccc(-n2nc(C(=O)NC(C(=O)NC3C(=O)N4C(C(=O)O)=C(C)CSC34)c3ccccc3)c(=O)[nH]c2=O)cc1 (centres undefined) | 5.16
4 | CC1=C(C(=O)O)N2C(=O)C(NC(=O)C(NC(=O)c3nn(-c4ccc(Cl)cc4)c(=O)[nH]c3=O)c3ccccc3)C2SC1 (centres undefined) | 4.91
5 | CC(=O)c1ccc(-n2nc(C(=O)NC(C(=O)NC3C(=O)N4C(C(=O)O)=C(C)CSC34)c3cccc(O)c3)c(=O)[nH]c2=O)cc1 (centres undefined) | -0.04
6 | CC1=C(C(=O)O)N2C(=O)C(NC(=O)C(NC(=O)c3nn(-c4ccc(F)c(Cl)c4)c(=O)[nH]c3=O)c3ccc(O)cc3)C2SC1 (centres undefined) | 3.1
7 | CC1=C(C(=O)O)N2C(=O)C(NC(=O)C(NC(=O)c3nn(-c4ccc(Cl)cc4Cl)c(=O)[nH]c3=O)c3ccc(O)cc3)C2SC1 (centres undefined) | 3.08
8 | CC1=C(C(=O)O)N2C(=O)C(NC(=O)C(NC(=O)c3nn(-c4ccc(C)cc4)c(=O)[nH]c3=O)c3cccc(O)c3)C2SC1 (centres undefined) | 2.53

Continued, values first:

Row | logP | SMILES
9 | 2.71 | CC(=O)c1ccc(-n2nc(C(=O)NC(C(=O)NC3C(=O)N4C(C(=O)O)=C(C)CSC34)c3ccccc3)c(=O)[nH]c2=O)cc1 (centres undefined)
10 | 3.87 | COc1ccc(-n2nc(C(=O)NC(C(=O)NC3C(=O)N4C(C(=O)O)=C(C)CSC34)c3ccccc3)c(=O)[nH]c2=O)cc1 (centres undefined)
11 | 4.97 | CC1=C(C(=O)O)N2C(=O)C(NC(=O)C(NC(=O)c3nn(-c4ccc(Cl)cc4Cl)c(=O)[nH]c3=O)c3ccccc3)C2SC1 (centres undefined)
12 | 3.15 | CC1=C(C(=O)O)N2C(=O)C(NC(=O)C(NC(=O)c3nn(-c4ccc([N+](=O)[O-])cc4)c(=O)[nH]c3=O)c3ccccc3)C2SC1 (centres undefined)
13 | 1.26 | CC1=C(C(=O)O)N2C(=O)[C@@H](NC(=O)[C@H](NC(=O)c3nn(-c4ccccc4)c(=O)[nH]c3=O)c3ccc(O)cc3)[C@H]2SC1
14 | 3.19 | CC1=C(C(=O)O)N2C(=O)C(NC(=O)C(NC(=O)c3nn(-c4ccccc4)c(=O)[nH]c3=O)c3ccccc3)C2SC1 (centres undefined)
